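A five-concentration, 48-hour dose response in 96-well plates underlies each endpoint, interpolated linearly between surrounding concentrations. The concentration for full growth arrest is given as TGI.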

Test systems include RXF 393 renal; HT29 colon; SK-MEL-2 melanoma; HOP-62 NSCLC; MALME-3M melanoma; SN12C renal; SK-OV-3 ovarian; U251 CNS; RPMI-8226 leukemia; KM12 colon; UACC-257 melanoma; SNB-75 CNS; SNB-19 CNS; ACHN renal; HOP-92 NSCLC; K-562 leukemia; DU-145 prostate; PC-3 prostate.
Common to all, as to test: NCI-60 cell line screen, 48 h

Regarding `O=C1Cc2c([nH]c3ccccc23)-c2ccccc2N1`, the TGI with RXF 393 renal is 40.7 µM; with HT29 colon it was 69 µM; in the assay on SK-MEL-2 melanoma it was greater than 100 µM; with HOP-62 NSCLC it was 97.7 µM; in the assay on MALME-3M melanoma, greater than 100 µM; in the assay with SN12C renal, greater than 100 µM. Moreover, the TGI in the assay on SK-OV-3 ovarian was greater than 100 µM; in the assay on U251 CNS it was greater than 100 µM; in the assay with RPMI-8226 leukemia it was greater than 100 µM; with KM12 colon, 45.2 µM; in the assay with UACC-257 melanoma it was greater than 100 µM; in the assay with SNB-75 CNS, greater than 100 µM. Also, the TGI with SNB-19 CNS, in the assay on ACHN renal, in the assay on HOP-92 NSCLC and with K-562 leukemia was greater than 100 µM in each case.

In the case of `CCN1C(=O)C(=C/C=C/C=C2/N(C)c3ccccc3C2(C)C)C(=O)N(CC)C1=S`, the TGI in the assay with RXF 393 renal, in the assay on HT29 colon, with SK-MEL-2 melanoma, in the assay with HOP-62 NSCLC, with MALME-3M melanoma and in the assay on SN12C renal was greater than 100 µM in each case. The TGI in the assay with SK-OV-3 ovarian, with RPMI-8226 leukemia, in the assay with KM12 colon, in the assay on UACC-257 melanoma, with SNB-75 CNS and in the assay with SNB-19 CNS was greater than 100 µM throughout. Also, the TGI in the assay on ACHN renal, with HOP-92 NSCLC, in the assay with K-562 leukemia and with DU-145 prostate was greater than 100 µM each time.

For the molecule `CCOC(=O)/C(=C\c1ccc(N(CCC#N)CCC#N)cc1)NC(=O)c1cc([N+](=O)[O-])ccc1Cl`, the TGI with RXF 393 renal, with HT29 colon, with SK-MEL-2 melanoma, with HOP-62 NSCLC, in the assay with MALME-3M melanoma and in the assay on SN12C renal was greater than 100 µM in each case. Further, the TGI in the assay with SK-OV-3 ovarian, in the assay with U251 CNS, in the assay on RPMI-8226 leukemia, in the assay with KM12 colon, in the assay with UACC-257 melanoma and with SNB-75 CNS was greater than 100 µM throughout. In addition, the TGI in the assay with SNB-19 CNS, in the assay with ACHN renal and with K-562 leukemia was greater than 100 µM each time.

As for `CC(C)(Oc1ccccc1)C(=O)Sc1c(-c2ccccc2)c(=O)n(-c2ccccc2)c(=S)n1-c1ccccc1`, the TGI with RXF 393 renal is 63.2 µM; in the assay on HT29 colon, greater than 100 µM; with HOP-62 NSCLC it was 52.8 µM; with MALME-3M melanoma it was greater than 100 µM; in the assay with SN12C renal it was greater than 100 µM; with SK-OV-3 ovarian, 87.1 µM. For the same molecule, the TGI with U251 CNS was 56.5 µM; in the assay with KM12 colon, 64.7 µM; in the assay on UACC-257 melanoma, greater than 100 µM; in the assay with SNB-75 CNS, greater than 100 µM; in the assay on SNB-19 CNS it was greater than 100 µM; in the assay with ACHN renal it was greater than 100 µM. Also, the TGI in the assay with HOP-92 NSCLC, with K-562 leukemia and in the assay on DU-145 prostate was greater than 100 µM each time.

Turning to `CC(=O)OC[C@]1(C)CCCC2(C)C1CCC1C=C(C)[C@H]3CCC12C3` (stereo partly specified), the TGI with RXF 393 renal, with HT29 colon, in the assay on HOP-62 NSCLC, in the assay with MALME-3M melanoma, in the assay with SN12C renal and in the assay on SK-OV-3 ovarian was greater than 100 µM throughout. Further, the TGI was greater than 100 µM in the assay on U251 CNS; greater than 100 µM in the assay with RPMI-8226 leukemia; greater than 100 µM in the assay with KM12 colon; greater than 100 µM in the assay with UACC-257 melanoma; 93.2 µM in the assay with SNB-75 CNS; greater than 100 µM with SNB-19 CNS. Further, the TGI with ACHN renal and with K-562 leukemia was greater than 100 µM throughout.

As to `Cc1nc(C(N)=S)sc1C(=O)CC(=O)C(=O)Nc1ccccc1[N+](=O)[O-]`, the TGI with RXF 393 renal, in the assay with HT29 colon, in the assay with SK-MEL-2 melanoma, in the assay with HOP-62 NSCLC, in the assay on MALME-3M melanoma and in the assay on SK-OV-3 ovarian was greater than 100 µM throughout. Further, the TGI in the assay with U251 CNS, with RPMI-8226 leukemia, in the assay with KM12 colon, in the assay on UACC-257 melanoma, with SNB-75 CNS and in the assay on SNB-19 CNS was greater than 100 µM in each case. Also, the TGI in the assay on ACHN renal, with HOP-92 NSCLC and in the assay on K-562 leukemia was greater than 100 µM throughout.

Turning to `C/C=C1\C=C(OC)CN(CCc2c[nH]c3ccccc23)C1`, the TGI in the assay with HT29 colon is greater than 100 µM; in the assay with SK-MEL-2 melanoma it was greater than 100 µM; with HOP-62 NSCLC, greater than 100 µM; with MALME-3M melanoma, 56.8 µM; in the assay on SN12C renal, greater than 100 µM; with RPMI-8226 leukemia, greater than 100 µM. In addition, the TGI in the assay on KM12 colon, with UACC-257 melanoma, with SNB-75 CNS, in the assay on SNB-19 CNS, in the assay with ACHN renal and in the assay on K-562 leukemia was greater than 100 µM each time.

For the molecule `Cc1ccccc1NC(=O)c1c(C)oc2c1C(=O)c1ccccc1C2=O`, the TGI with RXF 393 renal was greater than 100 µM; in the assay with HT29 colon, greater than 100 µM; with SK-MEL-2 melanoma it was greater than 72.3 µM; in the assay with HOP-62 NSCLC, greater than 100 µM; in the assay with MALME-3M melanoma it was 27.3 µM; in the assay on SN12C renal it was greater than 100 µM. The TGI with SK-OV-3 ovarian is greater than 100 µM; in the assay on U251 CNS, greater than 20.2 µM; in the assay on RPMI-8226 leukemia, 60.9 µM; with KM12 colon, greater than 100 µM; with UACC-257 melanoma, 52.7 µM; in the assay on SNB-75 CNS it was greater than 100 µM. Besides, the TGI in the assay on SNB-19 CNS was greater than 100 µM; in the assay with ACHN renal, greater than 100 µM; in the assay with HOP-92 NSCLC, 65.2 µM; in the assay on K-562 leukemia, 57.9 µM.

Turning to `Cc1cccc(C)c1NC(=O)C(=O)CC(=O)/C=C/c1ccccc1`, the TGI in the assay on RXF 393 renal, in the assay on HT29 colon, in the assay with SK-MEL-2 melanoma, with HOP-62 NSCLC, in the assay on MALME-3M melanoma and with SN12C renal was greater than 100 µM in each case. The TGI in the assay on SK-OV-3 ovarian, in the assay with U251 CNS, in the assay on RPMI-8226 leukemia, in the assay with KM12 colon, in the assay with UACC-257 melanoma and with SNB-75 CNS was greater than 100 µM each time. The TGI in the assay with SNB-19 CNS, with ACHN renal, with PC-3 prostate, in the assay on HOP-92 NSCLC and with K-562 leukemia was greater than 100 µM each time.
